As a reminder, the CC50 is the concentration that lowers cell viability or growth by half. Lower therefore signals harm at low concentration. The viability is the share of living cells, or the viability signal relative to a control.

One data set deals with COLO201 cells. In words: Cell cycle analysis by flow cytometry (propidium iodide), COLO201. In kind it is cell-based, human. The conditions noted are these: for Cell proliferation index (%) / Number of cells (%) in cell cycle phase G0/G1 / Number of cells (%) in cell cycle phase G2M / Number of cells (%) in cell cycle phase S: 24 h, M ± SD (n = 3). The method, then:
To study the potential cytostatic effect of compound 1d, we chose the method of cell cycle analysis using flow cytometry by DNA staining with propidium iodide.
To analyze possible effects on the cell cycle, we tested three concentrations of compound 1d, which were close to CC50 calculated on the basis of viability assessment data (MTT assay).
Cell cycle analysis was performed by flow cytometry by staining DNA with propidium iodide (PI). For this, cells were seeded into 6-well plates: 2 × 10^5 COLO201 cells per well and 1.2 × 10^5 MDA-MB-231 cells per well. […] The final concentration of DMSO in the culture medium was 0.1%; an equivalent volume was added to the control cells. The plates were incubated for 24 h in a CO2 incubator. Then, cells were detached from the plastic surface using TrypLE, washed with PBS, and fixed with 70% ethanol. Next, the cells were incubated for 1 h in the dark at 4 °C, then sedimented by centrifugation at 184× g for 10 min, and washed twice with PBS. PBS (0.3 mL) containing 0.1% Triton X-100, 1 µg/mL PI, and 0.2 mg/mL RNAse A was added to the pellet, incubated for 30 min at room temperature in the dark, and analyzed on a CytoFlex flow cytometer (Beckman Coulter, Brea, CA, USA).
The cell population in the test sample was found and gated on forward versus side scatter (FSC-A vs. SSC-A). Next, doublets were discriminated and removed via PI signal height versus PI signal area (PI-H vs. PI-A). For cell cycle phases analysis, PI-A was plotted against number of events (number of cells) (PI-A vs. Count).
The flow cytometry data were processed using the Kaluza Analysis 2.1 software (Beckman Coulter, Brea, CA, USA). Percentages of cell populations distributed in the various phases of the cell cycle (sub-G1, G0/G1, S, and G2M) were calculated. The result was considered significant if the coefficient of variation (CV) was less than 6.

For data set [1], the system named is SK-BR-3 human breast adenocarcinoma. In words: MTT cytotoxicity assay, SK-BR-3. In kind it is cell-based. The conditions noted are these: Homo sapiens; for CC50: SK-BR-3, 72 h, SK-BR-3, 72 h incubation, MTT; for viability at 100 µM: SK-BR-3, 1 × 10^–4 M, mean ± SD (n = 3), read-out: Cell viability. For orientation: Tetrazolium dyes change colour on reduction, which living cells bring about.

Data set [2] can be described thus: MTT cytotoxicity assay, SK-BR-3. Format: cell-based, human. The conditions noted are these: human, read-out: SCI (selective cytotoxicity index).
The next data set concerns Vero E6 cells. The arrangement: method as in doi:10.1007/s10593-021-02929-z. The conditions noted are these: cited from earlier work.
Data set [3] in a line: MTT cytotoxicity assay, HepG2. Format: cell-based, human. The following applies: human; CC50 of WI-38 divided by CC50 of HepG2; read-out: SCI (selective cytotoxicity index). An excerpt: (§1) The cytotoxicity of the test compounds was studied using the MTT assay against a number of cell lines: CT-26 murine colon carcinoma, 4T1 murine mammary carcinoma, MDA-MB-231 human breast adenocarcinoma, COLO201 human colorectal adenocarcinoma, HepG2 human hepatocellular carcinoma, A549 human non-small-cell lung carcinoma, SK-BR-3 human breast adenocarcinoma, SNU-1 human gastric carcinoma, Jurkat human acute T-lymphoblastic leukemia, and WI-38 human lung fibroblasts (normal cells). Doxorubicin (Dox) was used as a reference drug. Cells were incubated with test compounds for 72 h.
(§2) Cells were seeded in flat-bottomed 96-well plates at 10,000 cells per well (for A549, SNU-1, WI-38, CT-26, MDA-MB-231, 4T1, and HepG2 cells) or 20,000 cells per well (for SK-BR-3, Jurkat, and COLO201 cells) and cultivated in complete culture mediums (for composition of each medium, see the Supplementary Materials, Table S1) in a CO2 incubator at 37 °C. At the first stage of this study, the test compounds dissolved in DMSO were added to the wells with cells at final concentrations from 1 × 10^–4 to 1 × 10^–10 mol/L (A549, SK-BR-3, SNU-1, Jurkat, and WI-38) or 1 × 10^–3 to 1 × 10^–8 mol/L (CT-26, MDA-MB-231, 4T1, COLO201, and HepG2); DMSO concentration in the wells was finally 1%. A complete cultural medium and DMSO were added to the control wells at the same concentration as in the experimental wells; 0.1% Triton X-100 solution (10 µL) was added to the corresponding wells as a non-specific positive control. After adding the test compounds, the cells were incubated for 72 h in an atmosphere containing 5% CO2. After that, the nutrient medium was removed from each well (in the case of SK-BR-3, Jurkat, and COLO201, plates were pre-centrifuged at 1500 rpm for 6 min). A solution of the commercial anticancer agent Doxorubicin (Dox, Sigma-Aldrich, St. Louis, MO, USA) in DMSO was used as a reference drug. Then, 150 µL of a complete medium with the MTT reagent (PanEco, Moscow, Russia) at a concentration of 0.5 mg/mL was added and incubated for 2 h. Formazan crystals were dissolved in DMSO (200 µL) and the absorbance in the wells was measured at 540 nm and a reference wavelength of 650 nm (Sunrise, Tecan, Groding, Austria). Experiments were performed in three parallel runs. Cell viability after incubation in the presence of test compounds was calculated in relation to cell viability in the control wells according to the Formula (1):Cell viability (%) = (Aexp/Ac) × 100,(1) where Aexp is the optical density of solutions in the wells containing test compounds; Ac is the optical density of solutions in control wells without test compounds. For detailed information on cell viability of various cell lines, see the Supplementary Materials, Figures S21–S26.
(§3) At the second stage of this study, in order to more accurately calculate the CC50 (the half maximal inhibitory concentration), the cytotoxic effect of test compounds was evaluated at concentrations close to CC50 found at the first stage. The study of the cytotoxic activity of each substance towards the cells of each line was carried out in triplicate; the mean value was used to calculate CC50. The CC50 values were determined by non-linear regression analysis using Graph-Pad Prism7.

The subject of data set [4] is HepG2 human hepatocellular carcinoma. As to the kind of experiment: MTT cytotoxicity assay, HepG2. In kind it is cell-based. The conditions noted are these: Homo sapiens; for viability at 100 µM: HepG2, 1 × 10^–4 M, mean ± SD (n = 3), read-out: Cell viability; for CC50: HepG2, 72 h incubation, MTT, n = 3.
Source text: as §1, §2, §3

The mark [5] stands for this setting: CC50 of WI-38 divided by CC50 of SK-BR-3 (Table 1).

For the compound `CC1COc2c(ccc(F)c2F)N1C(=O)CCCCCCCCCCNc1ncnc2[nH]cnc12` (centres unmarked) [Compound 1d], the “Cell proliferation index (%)” value worked out at 37.05% in the data set on COLO201 cells (COLO201, 0.9×10–6 M); 36.78±0.29% in the data set with COLO201 cells (COLO201, 1×10–6 M); 35.35% in the data set with COLO201 cells (COLO201, 2×10–6 M). Moreover, the “Number of cells (%) in cell cycle phase G0/G1” value is recorded as 62.95% with COLO201 cells (COLO201, 0.9×10–6 M); 63.21% in the data set on COLO201 cells (COLO201, 1×10–6 M); 64.60% in the data set on COLO201 cells (COLO201, 2×10–6 M). For the same compound, the “Number of cells (%) in cell cycle phase G2M” value is on record as 15.70% with COLO201 cells (COLO201, 0.9×10–6 M); 15.41±0.74% with COLO201 cells (COLO201, 1×10–6 M); 16.84% with COLO201 cells (COLO201, 2×10–6 M). Further, the “Number of cells (%) in cell cycle phase S” value is 21.35% in the data set with COLO201 cells (COLO201, 0.9×10–6 M); 21.38% in the data set on COLO201 cells (COLO201, 1×10–6 M); 18.51% with COLO201 cells (COLO201, 2×10–6 M). The “cell cycle arrest phase” value with COLO201 cells (COLO201, concentrations close to CC50, 24 h) was “cell cycle arrest occurred in the G2/M phase”. The cell proliferation index with COLO201 cells (COLO201, concentrations close to CC50, 24 h, range over the concentrations) is given as 35–37%. For the same compound, the CC50 in data set [1] (n = 3 (Table 1)) was determined as 75 µM; in data set [1] (n = 3 (Table 3)), 28 µM; in data set [4] it was 8.5 µM. Besides, the viability at 100 µM stood at 8 ± 2% in data set [1] and 2 ± 1% in data set [4]. For the same compound, the selectivity ratio at 72 h amounted to 0.28 in data set [2] (setting [5]), 0.75 in data set [2] (CC50 of WI-38 divided by CC50 of SK-BR-3 (Table 3)) and 2.5 in data set [3]. Besides, the “concentration which caused the death of 50% Vero E6 cells” value with Vero E6 cells is “less than 30 µM”.

For `CC1COc2c(ccc(F)c2F)N1C(=O)CCCCCCCNc1ncnc2[nH]cnc12` (centres unmarked) [Compound 1c], the 50% cytotoxic concentration (CC50) in data set [1] (n = 3 (Table 1)) came to 75 µM; in data set [4] it was 8.5 µM. For the same compound, the viability at 100 µM in data set [1] was 8%; in data set [4] it was 2 ± 1%. Besides, the selectivity ratio at 72 h is 0.67 in data set [2] (setting [5]) and 5.9 in data set [3].
